Source: patent publication US12187758B2 (ROME Therapeutics, Inc., priority 2022, dated 2025)

How the values were obtained:
Type in all cases: cell-based
[1] = Mitochondria toxicity assay with PC3 cells, in-cell ELISA COX-1; settings: 5 days treatment
In short: (§1)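 This in-cell ELISA was run on fixed, permeabilized PC3 cells after 5-day exposure to titrated compound, with cytotoxicity measured on a duplicate plate. Results are reported as categories A (<1.0 μM) to E (>100.0 μM).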

THP1-Dual KO-TREX1 cells = test: THP1 TREX1 KO inhibition assay (type 1 interferon response); settings: Homo sapiens, 144 h, type 1 interferon (QUANTI-LUC), 1 μM 5-aza-2′-deoxycytidine, six days
Method: Exemplary compounds were tested for their ability to alter the type 1 interferon response in THP1 Dual TREX1 KG cells treated with 5-aza-2′-deoxycytidine. Assay procedures and results are described below.
THP1 Dual TREX1 KG cells were purchased from Invivogen. The THP1-Dual™ KO-TREX1 cells were cultured in RPMI 1640, 10% heat-inactivated fetal bovine serum, 25 mM HEPES, 10 μg/mL blasticidin, and 100 μg/mL zeocin. THP1-Dual™ KO-TREX1 cells were treated with a dose titration of a test compound alone or in the presence of 1 μM 5-aza-2′-deoxycytidine (Sigma-Aldrich, cat #189825). Type 1 Interferon and cell viability were assessed after six days of treatment.
Stock solution of the test compound was prepared in DMSO followed by a three-fold dilution in DMSO. Additional 50× dilution was prepared in cell culture media for each dilution. 10 μL of diluted test compound was then added to a 96-well plate.
THP1-Dual™ KO-TREX1 cells were treated with either 1×PBS or 1 μM 5-aza-2′-deoxycytidine. […] of the THP1-Dual™ KO-TREX1 cells from either treatment were added to each well of the 96-well plate containing the test compound titration at 50,000 cells/well. Cells were incubated at 37° C., 5% CO2 in a humidified incubator for six days. Cells treated with 1 μM 5-aza-2′-deoxycytidine were added at the same density as above and incubated at 37° C., 5% CO2 in a humidified incubator for six days. On day six, 25 μL of cell supernatant was transferred to a 96-well white-walled plate, followed by addition to each well of 50 μL of QUANTI-LUC solution containing stabilizer. Luminescence was detected on a plate reader according to the manufacturer's instructions.
The remaining cells were assessed for cell viability by adding 25 μL of CellTiter-Glo (Promega, G9683) solution to each well, and being placed on a shaker for 10 minutes at room temperature. Luminescence was detected on a plate reader, according to the manufacturer's instructions.
In the tables “A” represents values≤0.050 μM; “B” represents values from >0.050 μM to ≤0.100 μM; “C” represents values from >0.100 μM to ≤0.250 μM; “D” represents values from >0.250 μM to ≤1 μM; “E” represents values>1 μM; and “NT”=not tested: […]

[2] = tested on: SDH-A (succinate dehydrogenase-A); test: Mitochondria toxicity assay with PC3 cells, in-cell ELISA SDH-A; settings: 5 days treatment
In short: as §1

PC3 cells = test: Mitochondria toxicity assay with PC3 cells, cytotoxicity (Cell Titer Glo); settings: Homo sapiens, PC-3, 120 h, 5 days treatment
In short: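 PC3 cells in F-12K with 10% FBS exposed to a compound dose titration for 5 days at 37° C, 5% CO2. Viability by Cell Titer Glo luminescence after 30 min at room temperature; values binned A (<1.0 μM) to E (>100.0 μM).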

Row | Compound | IC50 [1] [µM] | IC50 (THP1-Dual KO-TREX1 cells) [µM] | IC50 [2] [µM] | IC50 (PC3 cells) [µM]
1 | Nc1ccn([C@@H]2O[C@H](CO)[C@@H](O)C2(F)F)c(=O)n1 [Compound 111, 4-amino-1-((2R,4R,5R)-3,3-difluoro-4-hydroxy-5-(hydroxymethyl)tetrahydro-furan-2-yl)pyrimidin-2(1H)-one] | < 1 | 0.05 to 0.1 | < 1 | < 1
2 | CC(C)[C@]1(CO)O[C@@H](n2ccc(N)nc2=O)C[C@@H]1O [Compound 55, 4-amino-1-[(2R,4S,5R)-4-hydroxy-5-(hydroxymethyl)-5-isopropyloxolan-2-yl] pyrimidin-2-one] | > 100 | > 1 | > 100 | > 100
3 | CCC[C@]1(CO)O[C@@H](n2ccc(N)nc2=O)C[C@@H]1O [Compound 60, 4-amino-1-((2R,4S,5R)-4-hydroxy-5-(hydroxymethyl)-5-propyltetrahydrofuran-2-yl)pyrimidin-2(1H)-one] | > 100 | > 1 | > 100 | > 100
4 | C#C[C@]1(CO)O[C@@H](n2cc(C)c(=O)[nH]c2=O)C[C@@H]1O [Compound 38, 1-((2R,4S,5R)-5-ethynyl-4-hydroxy-5-(hydroxymethyl)tetrahydrofuran-2-yl)-5-methylpyrimidine-2,4(1H,3H)-dione] | > 100 | > 1 | > 100 | > 100
5 | Nc1nc(=O)n([C@@H]2O[C@@](CO)(C3CC3)[C@@H](O)[C@@H]2F)cc1F [Compound 122, 4-amino-1-[(2R,3S,4R,5R)-5-cyclopropyl-3-fluoro-4-hydroxy-5-(hydroxymethyl)oxolan-2-yl]-5-fluoropyrimidin-2-one] | > 100 | > 1 | > 100 | > 100
6 | C=C[C@]1(CO)O[C@@H](n2cnc3c(=O)[nH]c(N)nc32)[C@@H](F)[C@@H]1O [Compound 63, 2-amino-9-[(2R,3S,4R,5R)-5-ethenyl-3-fluoro-4-hydroxy-5-(hydroxymethyl)oxolan-2-yl]-1H-purin-6-one] | 10 to 50 | > 1 | 10 to 50 | 10 to 50
7 | C#C[C@]1(CO)O[C@@H](n2cc(F)c(N)nc2=O)[C@@H](F)[C@@H]1O [Compound 112, 4-amino-1-((2R,3S,4R,5R)-5-ethynyl-3-fluoro-4-hydroxy-5-(hydroxymethyl)tetrahydrofuran-2-yl)-5-fluoropyrimidin-2(1H)-one] | < 1 | > 1 | < 1 | > 100
8 | CC[C@]1(CO)O[C@@H](n2cnc3c(N)nc(F)nc32)C[C@@H]1O [Compound 64, (2R,3S,5R)-5-(6-amino-2-fluoro-9H-purin-9-yl)-2-ethyl-2-(hydroxymethyl)tetrahydrofuran-3-ol] | < 1 | > 1 | < 1 | < 1
9 | Cc1cn([C@H]2C[C@H](O)[C@](CO)(CCl)O2)c(=O)nc1N [Compound 11, 4-amino-1-((2R,4S,5R)-5-(chloromethyl)-4-hydroxy-5-(hydroxymethyl)tetrahydrofuran-2-yl)-5-methylpyrimidin-2(1H)-one] | > 100 | > 1 | > 100 | > 100
10 | [2H]C([2H])(Cl)[C@]1(CO)O[C@@H](n2cc(F)c(N)nc2=O)[C@@H](F)[C@@H]1O [Compound 175, 4-amino-1-((2R,3S,4R,5R)-5-(chloromethyl-d2)-3-fluoro-4-hydroxy-5-(hydroxymethyl)tetrahydrofuran-2-yl)-5-fluoropyrimidin-2(1H)-one] | > 100 | 0.25 to 1 | > 100 | > 100
11 | C#C[C@]1(CO)O[C@@H](n2cc(F)c(N)nc2=O)C[C@@H]1O [Compound 107, 4-amino-1-((2R,4S,5R)-5-ethynyl-4-hydroxy-5-(hydroxymethyl)tetrahydro-furan-2-yl)-5-fluoropyrimidin-2(1H)-one] | > 100 | > 1 | > 100 | > 100
12 | Nc1ccn([C@@H]2O[C@@](CO)(CBr)[C@@H](O)[C@@H]2F)c(=O)n1 [Compound 172] | > 100 | > 1 | > 100 | > 100
13 | Nc1nc2c(ncn2[C@@H]2O[C@@](CO)(CCl)[C@@H](O)[C@@H]2F)c(=O)[nH]1 [Compound 70, 2-amino-9-((2R,3S,4R,5R)-5-(chloromethyl)-3-fluoro-4-hydroxy-5-(hydroxymethyl)-tetrahydrofuran-2-yl)-1,9-dihydro-6H-purin-6-one] | 10 to 50 | > 1 | 10 to 50 | 10 to 50
14 | C#C[C@]1(CO)O[C@@H](n2cc(C)c(=O)[nH]c2=O)[C@@H](F)[C@@H]1O [Compound 39, 1-((2R,3S,4R,5R)-5-ethynyl-3-fluoro-4-hydroxy-5-(hydroxymethyl)tetrahydrofuran-2-yl)-5-methylpyrimidine-2,4(1H,3H)-dione] | > 100 | > 1 | > 100 | > 100
15 | CC[C@]1(CO)O[C@@H](n2cnc3c(=O)[nH]c(N)nc32)C[C@@H]1O [Compound 115, 2-amino-9-((2R,4S,5R)-5-ethyl-4-hydroxy-5-(hydroxymethyl)tetrahydro-furan-2-yl)-1,9-dihydro-6H-purin-6-one] | 1 to 10 | > 1 | 1 to 10 | 1 to 10
16 | Nc1ccn([C@H]2C[C@H](O)[C@](CO)(CC(F)(F)F)O2)c(=O)n1 [Compound 62, 4-amino-1-[(2R,4S,5R)-4-hydroxy-5-(hydroxymethyl)-5-(2,2,2-trifluoroethyl)oxolan-2-yl] pyrimidin-2-one] | 10 to 50 | > 1 | 10 to 50 | 10 to 50
17 | C#C[C@]1(CO)O[C@@H](n2cnc3c(N)nc(F)nc32)[C@@H](F)[C@@H]1O [Compound 42, (2R,3R,4S,5R)-5-(6-amino-2-fluoro-9H-purin-9-yl)-2-ethynyl-4-fluoro-2-(hydroxymethyl)tetrahydro-furan-3-ol] | 10 to 50 | > 1 | 10 to 50 | 50 to 100
18 | C[C@]1(CO)O[C@@H](n2ccc(N)nc2=O)C[C@@H]1O [Compound 106, 4-amino-1-((2R,4S,5R)-4-hydroxy-5-(hydroxymethyl)-5-methyltetrahydrofuran-2-yl)pyrimidin-2(1H)-one] | < 1 | 0.25 to 1 | < 1 | < 1
19 | C=CCC1(CO)O[C@@H](n2ccc(N)nc2=O)C[C@@H]1O (stereo partly drawn) [Compound 56, 1-((2R,4S)-5-allyl-4-hydroxy-5-(hydroxymethyl)tetrahydrofuran-2-yl)-4-aminopyrimidin-2(1H)-one] | > 100 | > 1 | > 100 | > 100
20 | C=C[C@]1(COC(=O)C(C)C)O[C@@H](n2ccc(N)nc2=O)C[C@@H]1OC(=O)C(C)C [Compound 53, [(2R,3S,5R)-5-(4-amino-2-oxopyrimidin-1-yl)-2-ethenyl-3-[(2-methylpropanoyl)oxy]oxolan-2-yl] methyl 2-methylpropanoate] | > 100 | > 1 | > 100 | > 100
